Test in all cases: relative viability (nuclei count vs DMSO), 5 days (fraction); higher = more cells survive
Compound in one experiment: Cc1cnc(CNC(=O)c2c(=O)c3ccc(N4CCCN(C)CC4)nc3n3c2sc2ccccc23)cn1 [CX-5461]
In a few lines:
(§1)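 After an overnight hold at 37 °C, lung cancer cell lines in 1536-well plates were pinned with five library-drug doses (not always all listed), each √10 from the next, on vehicle-anchored plates. The cells stayed 5 days without fresh medium, then a one-step fix, permeabilisation and Hoechst stain preceded 4× imaging and MetaXpress nuclear counts. A plate passed only with control CV under 25% and at least one doubling. Viability is the median, over plates, of treated-well nuclei relative to vehicle-well nuclei.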

Compound in a further experiment: O=C(Nc1cc(C(F)(F)F)cc(C(F)(F)F)c1)c1cc(Cl)ccc1O [IMD-0354]
In a few lines: as §1

Compound in the experiment “IMD-0354 + Navitoclax”: O=C(Nc1cc(C(F)(F)F)cc(C(F)(F)F)c1)c1cc(Cl)ccc1O [IMD-0354] + CC1(C)CCC(c2ccc(Cl)cc2)=C(CN2CCN(c3ccc(C(=O)NS(=O)(=O)c4ccc(N[C@H](CCN5CCOCC5)CSc5ccccc5)c(S(=O)(=O)C(F)(F)F)c4)cc3)CC2)C1 [Navitoclax] (partner 0.5 µM)
In a few lines:
(§2)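 Values are medians from duplicate plates. Each reflects relative viability, defined as the nuclei count of treated wells over that of vehicle wells. Lung cancer cell lines in 1536-well plates were pin-tool dosed one day after seeding with one drug alone or with a fixed anchor-drug dose plus five library-drug doses (not always all listed) in √10 steps, then fixed, stained and imaged at 4× after 5 days.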

Compound in the experiment “CX-5461 + Trametinib”: Cc1cnc(CNC(=O)c2c(=O)c3ccc(N4CCCN(C)CC4)nc3n3c2sc2ccccc23)cn1 [CX-5461] + CC(=O)Nc1cccc(-n2c(=O)n(C3CC3)c(=O)c3c(Nc4ccc(I)cc4F)n(C)c(=O)c(C)c32)c1 [Trametinib] (partner 0.02 µM)
In a few lines:
as §2

For the cell line NCI-H1793, the relative viability with CX-5461 (0.01 µM) worked out at 0.989; with CX-5461 (0.03162 µM) it was 1.1; with CX-5461 (0.1 µM), 0.875; with CX-5461 (0.3162 µM) it was 0.997; in the experiment with CX-5461 (1 µM), 0.942; in the experiment with IMD-0354 (0.04 µM), 1.09. For the same cell line, the relative viability with IMD-0354 (0.1265 µM) turned out to be 0.759; in the experiment with IMD-0354 (0.4 µM), 0.499; with IMD-0354 (1.265 µM), 0.229; with IMD-0354 (4 µM) it was 0.213; with IMD-0354 + Navitoclax (first compound 0.04 µM), 0.356; with IMD-0354 + Navitoclax (first compound 0.1265 µM), 0.472. The relative viability in the experiment with IMD-0354 + Navitoclax (first compound 0.4 µM) was found to be 0.391; with IMD-0354 + Navitoclax (first compound 1.265 µM) it was 0.282; in the experiment with IMD-0354 + Navitoclax (first compound 4 µM), 0.246; with CX-5461 + Trametinib (first compound 0.01 µM), 0.386; in the experiment with CX-5461 + Trametinib (first compound 0.03162 µM), 0.519; in the experiment with CX-5461 + Trametinib (first compound 0.1 µM), 0.364. Besides, the relative viability with CX-5461 + Trametinib (first compound 0.3162 µM) was found to be 0.411; in the experiment with CX-5461 + Trametinib (first compound 1 µM), 0.353.
For the cell line SK-MES-1, the relative viability in the experiment with CX-5461 (0.01 µM) amounted to 1.1; with CX-5461 (0.03162 µM) it was 1.09; with CX-5461 (0.1 µM), 1.04; in the experiment with CX-5461 (0.3162 µM) it was 1.06; with CX-5461 (1 µM) it was 0.724; in the experiment with IMD-0354 (0.04 µM), 1.16. In addition, the relative viability with IMD-0354 (0.1265 µM) turned out to be 0.996; with IMD-0354 (0.4 µM), 0.645; with IMD-0354 (1.265 µM), 0.463; with IMD-0354 (4 µM), 0.223; in the experiment with IMD-0354 + Navitoclax (first compound 0.04 µM) it was 1.48; with IMD-0354 + Navitoclax (first compound 0.1265 µM), 1.12. Moreover, the relative viability with IMD-0354 + Navitoclax (first compound 0.4 µM) amounted to 0.649; in the experiment with IMD-0354 + Navitoclax (first compound 1.265 µM), 0.441; in the experiment with IMD-0354 + Navitoclax (first compound 4 µM), 0.314; in the experiment with CX-5461 + Trametinib (first compound 0.01 µM), 0.641; with CX-5461 + Trametinib (first compound 0.03162 µM), 0.595; in the experiment with CX-5461 + Trametinib (first compound 0.1 µM) it was 0.562. Further, the figures for the relative viability with CX-5461 + Trametinib (first compound 0.3162 µM) and with CX-5461 + Trametinib (first compound 1 µM) were 0.533 and 0.44, respectively.
In the case of NCI-H838, the relative viability with CX-5461 (0.01 µM) is 0.983; with CX-5461 (0.03162 µM), 1; in the experiment with CX-5461 (0.1 µM), 0.992; with CX-5461 (0.3162 µM), 0.78; in the experiment with CX-5461 (1 µM) it was 0.806; in the experiment with IMD-0354 (0.04 µM), 0.977. Moreover, the relative viability was 0.954 with IMD-0354 (0.1265 µM); 0.565 in the experiment with IMD-0354 (0.4 µM); 0.432 with IMD-0354 (1.265 µM); 0.27 in the experiment with IMD-0354 (4 µM); 1.16 in the experiment with IMD-0354 + Navitoclax (first compound 0.04 µM); 1.21 with IMD-0354 + Navitoclax (first compound 0.1265 µM). For the same cell line, the relative viability was 0.468 with IMD-0354 + Navitoclax (first compound 0.4 µM); 0.314 with IMD-0354 + Navitoclax (first compound 1.265 µM); 0.251 in the experiment with IMD-0354 + Navitoclax (first compound 4 µM); 0.555 with CX-5461 + Trametinib (first compound 0.01 µM); 0.555 with CX-5461 + Trametinib (first compound 0.03162 µM); 0.539 in the experiment with CX-5461 + Trametinib (first compound 0.1 µM). Besides, the relative viability amounted to 0.328 in the experiment with CX-5461 + Trametinib (first compound 0.3162 µM) and 0.482 with CX-5461 + Trametinib (first compound 1 µM).
As to CAL-12T, the relative viability came to 1.02 in the experiment with CX-5461 (0.01 µM); 0.994 with CX-5461 (0.03162 µM); 0.947 with CX-5461 (0.1 µM); 0.936 in the experiment with CX-5461 (0.3162 µM); 0.662 with CX-5461 (1 µM); 1.07 with IMD-0354 (0.04 µM). The relative viability in the experiment with IMD-0354 (0.1265 µM) turned out to be 0.922; in the experiment with IMD-0354 (0.4 µM) it was 0.545; in the experiment with IMD-0354 (1.265 µM), 0.251; with IMD-0354 (4 µM), 0.162; with IMD-0354 + Navitoclax (first compound 0.04 µM), 1.33; with IMD-0354 + Navitoclax (first compound 0.1265 µM), 1.08. In addition, the relative viability in the experiment with IMD-0354 + Navitoclax (first compound 0.4 µM) is 0.629; with IMD-0354 + Navitoclax (first compound 1.265 µM), 0.358; with IMD-0354 + Navitoclax (first compound 4 µM), 0.156; with CX-5461 + Trametinib (first compound 0.01 µM), 0.367; in the experiment with CX-5461 + Trametinib (first compound 0.03162 µM), 0.297; in the experiment with CX-5461 + Trametinib (first compound 0.1 µM) it was 0.302. The values for the relative viability with CX-5461 + Trametinib (first compound 0.3162 µM) and with CX-5461 + Trametinib (first compound 1 µM) were 0.344 and 0.181, respectively.

(Values after the supplement of paper PMC10307832.)
